Source: a melting point compilation (Tetko et al.; mined from patent text by program, amines drawn as free bases though some values may be those of a salt)

`CCc1noc(-c2cc3c(cn2)[nH]c2ccc(N(C)C)cc23)n1` gave a melting point of 235 to 240 °C.
With `O=C(NC1CCN(CC(O)COc2cccc3ccccc23)CC1)c1ccccc1` (stereo not drawn) the melting point was 139 to 141 °C.
For `O=C1OCCn2c1cc(=O)c(O)c2C(O)c1ccc(F)cc1` (stereo not drawn), the melting point was 221 to 225 °C.
Work on `Nc1ncc(-c2ccc([N+](=O)[O-])c(Cl)c2Cl)c(N)n1` yielded a melting point of 237 to 239 °C.
`CCCC[C@H](NC(=O)[C@H](CC(C)C)NC(=O)c1ccc(C)cc1)C(=O)CSCc1ccco1` showed a melting point of 122 to 123 °C.
`CCn1c(N)nc2cc(CN3CCN(C(c4ccccc4)c4ccccc4)CC3)ccc21` showed a melting point of 214 °C.
With `O=c1c2c(CCc3cccc([N+](=O)[O-])c3)n[nH]c2c2cccnc2n1-c1ccccc1` the melting point was 245 to 247 °C.
In the case of `CC(C)(C)OC(=O)N1CCC(C(=O)Nc2ccccc2Oc2ccc(Cl)cc2)CC1`, the melting point is reported as 97 to 99 °C.
`C#CCSc1ccccc1C=CCN(O)C(N)=O` showed a melting point of 141 to 142 °C.
Work on `COCCOc1ccc(CCCOC(=O)NS(N)(=O)=O)c(Oc2ncc(Cl)cc2Cl)c1` yielded a melting point of 153 to 154 °C.
Molecule `O=C1Nc2ccccc2C(c2ccccc2)N1C1CCN(Cc2ccccc2)CC1` (stereo not drawn) has a melting point of 199 to 200 °C.
In the case of `O=C(NC1CCN(CCCCc2ccccc2)C1)C12CC3CC(CC(C3)C1)C2` (stereo not drawn), the melting point is reported as 82 to 84 °C.
`Nc1nc(N)c2cc(Oc3ccc(Cl)cc3)ccc2n1` showed a melting point of 226 to 228 °C.
`Cc1nc2ccccc2n1Cc1ccc(-n2c(C)nc3cnccc32)cc1` gave a melting point of 184 to 185 °C.
`CC(=O)COc1nc(N2CCCCC2)c2nc(OCC(C)=O)nc(N3CCCCC3)c2n1` gave a melting point of 188 to 189 °C.
In the case of `CCc1ccc(Nc2ncc(Cc3ccc(OC)nc3)c3ncccc23)cc1Br`, the melting point is reported as 142 to 146 °C.
`C[C@H]1CN(c2c(F)c(F)c3c(=O)c(C(=O)O)cn(C4CC4)c3c2F)C[C@H]1N` (relative stereo) gave a melting point of 255 to 256 °C.
In the case of `CCn1cc(C(=O)Nc2ccc(C(C)C)cc2)cn1`, the melting point is reported as 141 °C.
Molecule `COc1ccnc(C(=O)c2[nH]c3cc(Cl)ccc3c2NC(=O)CC(C)C)c1` has a melting point of 162 to 163 °C.
For `O=C(O)COc1ccc(C(=O)O)c(Cl)c1Cl`, the melting point was over 250 °C.
`CN(C)c1cc2nc(C(=O)O)c(=O)[nH]c2cc1[N+](=O)[O-]` showed a melting point of 194 to 196 °C.
Molecule `O=C(NCc1ccc(F)cc1)c1cccc(C(=O)NCc2ccc(F)cc2)c1` has a melting point of 190 to 191 °C.
For `CCOC(=O)CC1CN=C(c2cc3cccc(N(C)S(=O)(=O)c4cccs4)c3[nH]2)S1` (stereo not drawn), the melting point was 101 to 102 °C.
Work on `CCC(O)(Cn1cncn1)C(c1ccc(Cl)cc1)n1cncn1` (stereo not drawn) yielded a melting point of 60 to 64 °C.
`O=C(CCNC(=O)[C@H](Cc1ccc(-c2ccccc2)cc1)NCP(=O)(O)Oc1ccccc1)OCc1ccccc1` gave a melting point of 243 to 244 °C.
`CC(C)(C)NC(=O)[C@@H]1CCCN1C(=O)[C@@H](O)[C@H](Cc1ccccc1)NC(=O)[C@H](CC(N)=O)NC(=O)OC(C)(C)C` showed a melting point of 113 to 115 °C.
For `COC(=O)C(Oc1cc(OCc2ccsc2)ccc1C#N)c1ccccc1F` (racemic), the melting point was 104 to 106 °C.
Molecule `Cc1[nH]c2ncnc(N3CCCc4ccccc43)c2c1C` has a melting point of 263 to 264 °C.
With `COc1ccc(-n2cnc3ccc(-c4nnc(CCc5cccc(F)c5)o4)cc32)cc1` the melting point was 145 to 147 °C.
Work on `CC1=NC(NC(=O)Nc2cccc(Br)c2)C(=O)N(CC(=O)N2CC3CCC(CC3)C2)c2c(C)cccc21` (stereo not drawn) yielded a melting point of 168 to 171 °C.
Molecule `O=C(CCCl)Nc1ccc(F)c(F)c1` has a melting point of 76 °C.
With `O=C(NCCCOc1cc(CN2CCCCC2)ccn1)c1cn[nH]c1` the melting point was 117 to 119 °C.
`CS(=O)c1ccc(S(=O)(=O)N2CCCC2=O)cc1` (stereo not drawn) gave a melting point of 127 to 129 °C.
Molecule `O=CC(=Cc1ccc(OCc2ccccc2)cc1)C(C=O)=Cc1ccc(OCc2ccccc2)cc1` has a melting point of 119 to 120 °C.
Work on `CCn1c(N(C)C)nc2cc(C(F)(F)F)c(Cl)c([N+](=O)[O-])c21` yielded a melting point of 121 to 122 °C.
For `O=C(NCC1CCN(CCc2ccccn2)CC1)c1ccc2nonc2c1`, the melting point was 149 to 151 °C.
With `Cc1noc(NC(=O)N2CCN(c3nc(-c4ccc(F)cc4F)cs3)CC2)c1C` the melting point was 166 to 167 °C.
`O=C(O)C=C1CCCCC1Cc1ccccc1` (racemic) showed a melting point of 98 to 100 °C.
`CC(C)=C(C(=O)O)c1ccc(Cl)cc1` gave a melting point of 144 to 145 °C.
Work on `N#Cc1cccc(Oc2ncccc2O)c1` yielded a melting point of 130 to 133 °C.
`CNC(=O)c1ccncc1I` gave a melting point of 132 to 133 °C.
In the case of `CC(C)(C)OC(=O)NC(=N)c1ccc(C(=O)NCCC(=O)OCc2ccccc2)cc1`, the melting point is reported as 127 to 128 °C.
Molecule `Cc1cc(C(=O)Nc2ccccc2C)n(C)n1` has a melting point of 158 to 160 °C.
Work on `CC(C)c1ccc(-c2cnc(-c3cccc(C(=O)O)c3)o2)cc1` yielded a melting point of 150 to 153 °C.
Molecule `NS(=O)(=O)c1cc(C(=O)CBr)ccc1F` has a melting point of 125 °C.
Work on `COc1cc(CCl)ccc1OCCCCOc1ccc(CCl)cc1OC` yielded a melting point of 116 to 118 °C.
With `O=C(Cc1ccccc1F)c1ccc(I)cc1` the melting point was 112 to 114 °C.
Molecule `CCNc1ccc(-c2cc3ccccc3o2)cc1` has a melting point of 126 to 128 °C.
Molecule `CCOC(=O)C(=O)CC(=O)CC(=O)c1ccc(Cl)cc1` has a melting point of 93 to 94 °C.
For `Fc1ccc(OCCCN2CCC(CNc3nc4ccccc4s3)CC2)c(OCc2ccccc2)c1`, the melting point was 130 °C.
In the case of `COc1cc(NC(N)=O)c2c(c1)OC(C)C2` (stereo not drawn), the melting point is reported as 204 °C.
With `COc1cccc2c1CCN(C(=O)C(F)(F)F)CC2` the melting point was 74 to 76 °C.
`Cc1ccc(/C=C/c2sccc2S(=O)(=O)Nc2onc(C)c2Br)cc1` showed a melting point of 101 to 105 °C.
For `CS(=O)(=O)N1CCC(NC(=O)Nc2cccc(C(F)(F)F)c2)CC1`, the melting point was 226 to 229 °C.
`CN1CCN(c2ccc(N/C=C3\C(=O)NC(=O)c4ccc(C(=O)N(C)C)cc43)cc2)CC1` showed a melting point of over 300 °C.
Molecule `CCCCCCCCCCCCc1ccccc1C(CC(=O)O)SCCC(=O)O` (stereo not drawn) has a melting point of 55 to 56 °C.
For `CCc1c(N)cccc1NC(=O)c1ccc(Br)cc1`, the melting point was 169 to 170 °C.
For `CCC1(Cl)Cc2cc(OCC(=O)O)c(Cl)c(Cl)c2C1=O` (stereo not drawn), the melting point was 185 to 187 °C.
With `CN1Cc2c(C(N)=NO)ncn2-c2ccc(F)c(Cl)c2C1=O` the melting point was 228 to 231 °C.
With `O=Cc1cnc(-c2ccc(OC(F)(F)F)cc2)nc1` the melting point was 114 to 115 °C.
For `N#Cc1cc(-c2ccoc2)c2ccc(COc3cc(F)cc(-c4ccccn4)c3)cc2n1`, the melting point was 198 to 200 °C.
In the case of `CCCc1nc2c(N)nc3ccccc3c2n1OCC`, the melting point is reported as 198 to 199 °C.
With `O=C(O)Cc1ccccc1CC(=O)Nc1cccc(/C=C/c2nc(C3CCC3)cs2)c1` the melting point was 160 to 162 °C.
Molecule `Cc1cc(C)cc(SCc2c(C(C)C)nc(C(C)C)c(CO)c2-c2ccc(F)cc2)c1` has a melting point of 109 to 110 °C.
`CC(C)(C)c1ccc(C(=O)Nc2ccc([N+](=O)[O-])cc2C(=O)O)cc1` gave a melting point of 245 to 249 °C.
With `CCC(=O)Nc1c(Cl)cnn1-c1ccc(Cl)c(Cl)c1Cl` the melting point was 122 °C.
Work on `COc1ccccc1N1CCN(C(=O)[C@H](N)Cc2cccnc2)CC1` yielded a melting point of over 240 °C.
Work on `CCn1nc(Br)c([N+](=O)[O-])c1Br` yielded a melting point of 119 to 121 °C.
`CCCCc1ccc(C(=O)N[C@H](Cc2ccc(C(F)(F)F)cc2)[C@@H](O)c2ccc(F)cc2)cc1` (racemic) showed a melting point of 171 to 172 °C.
`O=C(O)c1oc(=O)c2cc(Cl)c(Cl)cc2c1-c1ccccc1` showed a melting point of 243 to 244 °C.
With `CCOC(=O)Nn1c(C)ccc1C(=O)c1ccccc1Cl` the melting point was 82 to 84 °C.
`CON1C(=O)CC2(CCN(C(=O)c3cccnc3)CC2)C1=O` gave a melting point of 199 to 201 °C.
Work on `CC1=C(c2ccc(C(=O)O)cc2)CCCC1` yielded a melting point of 176 to 178 °C.
`O=C(O)C1=Cc2cc(OC(F)(F)F)ccc2NC1C(F)(F)F` (stereo not drawn) showed a melting point of 128 to 129 °C.
Work on `Cc1ccc(C(CCN(C(C)C)C(C)C)(CCN(C(C)C)C(C)C)C(N)=O)cc1` yielded a melting point of 97 to 100 °C.
Work on `CCOC(=O)Nc1ccc(C(c2ccccc2)n2ccnc2)cc1COC1CCCCO1` (stereo not drawn) yielded a melting point of 132 °C.
In the case of `O=c1[nH]c2[nH]c3ccccc3c2c2ccccc12`, the melting point is reported as over 310 °C.
For `COc1c(C(C)=O)cnc2c([N+](=O)[O-])cccc12`, the melting point was 100 to 105 °C.
For `c1ccc(-c2cc3nc(N4CCOCC4)c4ccccc4c3nn2)cc1`, the melting point was 214 to 216 °C.
Molecule `Cc1cc(CCCOc2c(C)cc(-c3noc(=N)[nH]3)cc2C)on1` has a melting point of 175 to 183 °C.
For `OCc1nccn1CCCc1ccc(OCc2coc(/C=C/c3ccccc3)n2)cc1`, the melting point was 143 to 144 °C.
For `CC(/C=C/c1sccc1-c1ccc2c(c1)C(C)(C)CCC2(C)C)=C\C(=O)O`, the melting point was 188 to 189 °C.
With `CC(=O)CC(=O)Nc1c(C(=O)c2ccccc2)[nH]c2cc(Cl)ccc12` the melting point was 170 to 173 °C.
Work on `O=C(O)c1cc(OCCCOc2ccc(-c3ccccc3)cc2)cc(OCCCOc2ccc(-c3ccccc3)cc2)c1` yielded a melting point of 186 to 187 °C.
`CCOC(=O)C1=C(N)N=C(OCC)C(C(=O)OCC)C1c1ccc(C)cc1` (stereo not drawn) showed a melting point of 119 °C.
With `O=C(NC(=O)c1c(Cl)cccc1Cl)Nc1cc(Br)c(Br)cc1C(F)(F)F` the melting point was 204 °C.
For `O=c1nc(-c2ccccc2)c2cc([N+](=O)[O-])ccc2n1Cc1cccs1`, the melting point was 219 to 220 °C.
In the case of `CCONC(=O)c1ccc(-c2cccc(CN(C)CCCc3ccccc3)c2)cn1`, the melting point is reported as 50 to 55 °C.
`CC(=O)Nc1cccc(C2=NNC(=O)C3CC23)c1` (stereo not drawn) gave a melting point of 200 to 202 °C.
`CCOC(=O)COc1c2ccccc2cc2c1c(C(=O)C(N)=O)c(CC)n2Cc1ccccc1` gave a melting point of 130 to 131 °C.
For `Cc1[nH]c(C(=O)NCc2ccc3c(c2)OCO3)c(C)c1-c1nc2ccc(C(=O)c3ccccc3)cc2[nH]1`, the melting point was 165 to 167 °C.
`COc1cc(C2CCN(CCF)CC2)ccc1Nc1ncc2ccc(-c3ccccc3N(C)S(C)(=O)=O)n2n1` showed a melting point of 90 to 97 °C.
`O=C(Nc1ccc(C(=O)N2C[C@H]3C[C@H](F)CN3c3ccccc32)cc1)c1ccccc1-c1ccccc1` gave a melting point of 136 to 145 °C.
Work on `Cc1ccc(C)c(OCc2ccccc2CC#N)c1` yielded a melting point of 51.5 to 53 °C.
`CC(=O)OCCCN1CCC(CNC(=O)[C@@H]2CCCN2S(=O)(=O)c2ccc(Cl)c(COc3cccc4c(-n5cccn5)cc(C)nc34)c2Cl)CC1` showed a melting point of 89 °C.
For `COc1cccc(C(=O)N2CCCC(=O)c3ccc(Cl)cc3CCC2=O)c1`, the melting point was 105 to 106 °C.
Work on `COc1ccc2c(n1)C1(CO2)C(=O)N(CC2CCCO2)c2cccc(Br)c21` (stereo not drawn) yielded a melting point of 110 to 112 °C.
`CCc1cc(OCc2ccc(C(=O)NS(=O)(=O)c3ccccc3C)cc2)c2c(n1)CCCC2` gave a melting point of 266 to 268 °C.
